Data as given in patent US12691100B2, “NMT inhibitor treatment of a senescence-associated disease or disorder of the liver” (Imperial College Innovations Limited, priority 2020, dated 2026).

Tests used:
[1] = test system: HCT116 colon cancer cells; experiment: Senolytic survival assay, chemotherapy-induced senescence in cancer cells; type: cell-based, human; conditions: second experiment: doxorubicin 100 nM, etoposide 2 μM or cisplatin 100 μM, or DMSO; replenished after 72 h, 48 h more; FIGS. 7A-C
Procedure: IMR90 cells were used to generate inducible ER:RAS (hereinafter iRAS) cells to model Oncogene induced senescence (OIS), through retroviral infection of pLNC-ER:RAS-neo into IMR90 cells followed by selection with Neomycin. IMR90 cells containing the pLNC-ER:RAS plasmid backbone pLXSN were infected in parallel to assess leakiness in the pLNC-ER:RAS system. Treatment with 100 nM 4OHT (Sigma, in DMSO) was used to induce IMR90 ER:RAS cells to undergo oncogene induced senescence (OIS). Therapy induced senescence (TIS) was induced in IMR90 cells by treatment with 33 μM (50 ug/ml) bleomycin sulphate (Generon, HY-17565) for 24 hours, 20 μM palbociclib (Selleckchem, S1116) for 7 days or 100 nM doxorubicin (Cayman chemical, 15007) for 7 days. Senescence was induced in SK-HEP-1 cells by treatment with 2 μM etoposide (Sigma-Aldrich, E1383) for 7 days (FIGS. 4A-C). HCT-116 senescence was induced by 250 nM treatment with doxorubicin (Cayman chemical, 15007) for 48 hours followed by 5 days culture in media without chemotherapy (FIG. 5), or by treatment with 100 nM doxorubicin, 2 μM etoposide or 100 μM cisplatin for 3 days followed by 4 days culture in media without chemotherapy (FIGS. 6A-7C). Senescence was induced in MCF7 by 200 nM treatment with doxorubicin for 7 days, 2 μM etoposide for 7 days or 10 μM cisplatin for 7 days (FIGS. 8A-9C).
High-throughput microscopy survival assay—To assess senolytic effect of drugs, cells were cultured for 7 days, culture media was changed to DM0.5 media and drugs in DMSO were added (<5% v/v final concentration), drugs were replenished after 3 days if assay length was longer than 72 h. Wells were fixed in 4% PFA for 1 hour at day 10 to 14, washed 3 times with PBS and then stained with 1 μg/mL DAPI (w/v, PBS) for 10 minutes. Wells were then washed 3 times with PBS. Optionally plates could be stored at 4° C. for up to 2 weeks and DAPI stained. Image acquisition of DAPI stained cells was performed on an automated InCell Analyser 2000 (GE Healthcare®) and high-content analysis on the InCell Investigator 2.7.3 software used to quantify number of DAPI positive cells per well. […] Survival was measured as cell counts relative to DMSO treated quiescent or senescent cells.
In a first experiment, HCT116 colon cancer cells were treated with doxorubicin (to induce senescence), or DMSO (as a control). […] 7 days after adding the drugs with replenishment after 3 days, cells were fixed, imaged and cells numbers were quantified using high throughput microscopy. […]
In a second experiment, HCT116 were treated with doxorubicin, etoposide or cisplatin (to induce senescence) or DMSO (as a control). 7 days after treatment, BrdU incorporation (to assess cell division), SA-β-Galactosidase activity and p21^CIP1 expression (as markers of senescence) were analysed. […]

[2] = Blood markers (Vetscan) in a separate cohort of old mice; type: in vivo, female C57/BL6 mice; conditions: ~19 mo females, before 4th round, Compound 2 10 mg/kg, Compound 3 25 mg/kg, versus vehicle
Procedure: Blood was collected prior to each round of injection for physiological assessments. Mice were allowed to rest 4 weeks prior to being culled and organs collected for freezing in OCT, paraffin embedding and snap-freezing for RNA extraction.
For analysis of immune cell composition in whole blood, tail-vein blood was collected 2 days after last treatment. Whole blood was diluted in saline to a volume of […] and ran on a Sysmex XE2100 automated cell counter. Blood glucose levels were determined by collecting whole-blood from tail vein into heparinised tubes (Abraxis), 120-140 μL of whole-blood to be loaded onto a comprehensive diagnostic profile reagent rotor (Abraxis) and run on a VetScan VS2 Chemistry Analyzer (Abraxis: 500-7123).
Further experiments were performed on a separate cohort of old mice. […] This regimen was repeated 4 more times and blood was collected for Vetscan measurements prior to the 4th round of treatment (FIG. 19). At that stage, ~19 mo females presented elevated levels of ALT, amylase and glucose in blood when compared with young mice (FIG. 20A).

[3] = test system: senescent preneoplastic hepatocytes; experiment: Model of liver cancer initiation (Nras G12V by hydrodynamic tail vein injection); type: in vivo, C57BL/6J mice; conditions: 25 mg/kg i.p. daily for 4 days from day 5 after HDTVI; FIGS. 16C-E
Procedure: All mice were purchased from Charles River UK, Ltd. For Hydrodynamic tail vein injection (HDTVI) experiments female C57BL/6J mice aged 5-6 weeks were given 20 μg of Nras^G12V & gaussia luciferase (Gluc) expressing plasmid and 5 μg of SB13 transposase-expressing plasmid. Plasmids were prepared using GeneElute HP Endotoxin-free Plasmid Maxiprep kit (Sigma). Purified plasmids were diluted in sterile-filtered PBS to a total volume of 10% mouse body weight and injected into mouse lateral tail vein within a 10 s window. 4 days after HDTVI, mice were bled to assess presence of gaussia luciferase signal in the blood serum and used to randomize/equalize groupings for vehicle and drug treated groups. […]
Immunohistochemical staining—Slides were deparaffinised by washing slides twice in Histoclear™ for 5 min each, followed by 5 min washes in decreasing concentrations of ethanol with 100%, 75%, 50% & 25% ethanol washes before a final wash 5 min in dH2O. […] Signal development was stopped when visible positive cells could be detected on a microscope, by washing slides in dH2O. […]
Slide image acquisition & analysis—Slides were acquired using a 20× brightfield objective on a Zeiss Axio Scan Z.1 slide scanner and analysis performed using QuPath version 0.2.0-m9 using in built positive cell detection tool to segment Haematoxylin stained nuclei and quantify mean intensity of DAB. […]

## Cc1c(CCOc2cc(Cl)ccc2-c2ccc3ncc(CCN)n3c2)c(C(=O)N(C)C)nn1C [Compound 3, 4-(2-{2-[3-(2-aminoethyl)imidazo[1,2-a]pyridin-6-yl]-5-chlorophenoxy}ethyl)-N,N,1,5-tetramethyl-1H-pyrazole-3-carboxamide]
[1]
  Survival, senescent versus control cells: preferentially kill cancer cells that undergo senescence after being treated with doxorubicin, etoposide or cisplatin
[2]; FIG. 20A
  ALT in blood: lower level
[2]; FIG. 20B
  Amylase in blood: lower level
[2]; FIG. 20C
  Glucose in blood: lower level
[3]
  Number of senescent preneoplastic hepatocytes: reduces the number senescent preneoplastic hepatocytes
